# Laboratory results reported in patent US9340559B2, “Proteasome inhibitor delanzomib for use in the treatment of lupus” (Cephalon, Inc., priority 2011, dated 2016).
# Assays:
# Type in all cases: in vivo, mouse
# MRL/lpr mice [1] = assay: Urinalysis: urine leukocytes (leukouria), Uristix, MRL/lpr mice
# Experimental: Urine samples are acid precipitated for total protein recovery and analysis. Samples for which enough urine remained are used for Uristix® leukouria analysis. Briefly, a standard protein solution is prepared from normal mouse sera and is used as a standard for mouse urinary protein assay by turbidity. Standard preparation is as follows: 0, 5, 10, 15, 20, 30, 40, and 50 μL of a 4 mg/mL mouse sera standard protein solution as provided in the kit are added in duplicate into two columns. PBS is added to individual wells to adjust the final volume to 50 μL. For urine sample preparation, urine samples are centrifuged at 9880×g for 3 minutes using a tabletop micro-centrifuge. Urine supernatant (1-50 μL) is added in duplicate. PBS is added to adjust the volume to 50 μL total. For the turbidity assay: 25 μL of 0.1 N HCl is added into blank columns and 250 μL of 3% sulfosalicyclic acid into the test columns. The microplate is incubated for 10 minutes at RT and plates are read using an ELISA reader with single beam at 450 nm. For the Uristix® strip assay, strips are laid out and labeled. Twenty microliters of urine are placed onto each test strip square and incubated for at least 30 seconds before the result is recorded. For all total urine analysis plate-based assays, values below the limit of detection set by the lowest point along the standard or set by the manufacturer are considered out of range and are not estimated, but assumed the lowest point along the standard curve for that particular assay.
# MRL/lpr mice [2] = assay: Antibody secreting B-cell Elispot (anti-Smith Ag, anti-dsDNA, anti-chromatin ASC), spleens of MRL/lpr mice
# Experimental: (§1) FIG. 9 depicts frequency of anti-Smith antigen and anti-dsDNA antibody secreting cells in the spleens of MRL/lpr mice. MRL/lpr treated mice spleens were processed for splenocytes for ex vivo Elispot assays. Elispot wells were coated with 10 μg/mL of smith antigen, dsDNA or ovalbumin protein. Fresh, whole splenocytes were added to each well at 500,000 cells per well in cell culture medium. Cells were incubated overnight at 37° C. Developed wells provided spots that were counted as frequency of ASCs per million splenocytes.
# as §1, with “10” for “9”, “depicts the” for “depicts”, “anti-chromatin” for “anti-Smith antigen and anti-dsDNA”, “boiled chicken chromatin” for “smith antigen, dsDNA”, “[…]” for “500,000”
# B-cell Elispot components are ordered from MabTech (Nacka Strand, Sweden) and nitrocellulose IP filter plates are ordered from Millipore (Billerica, Mass.). Elispot wells are coated with either purified bovine thymus dsDNA (Sigma), purified bovine Smith antigen (GenWay) or boiled filtered purified chicken chromatin from lysed chicken red blood cells (Rockland, Gilbertsville, Pa.) at 10 μg/mL. Spleens are processed using glass homogenization, filtered through a 60 μm sterile cell strainer and red blood cells (RBCs) lysed using BioLegend (San Diego, Calif.) lysis buffer. Processed splenocytes are added to each well in culture medium. To avoid skewing of true ex vivo frequencies of antibody secreting cell types (ASCs), cells are not stimulated with a polyclonal mitogen like LPS, but rather incubated in media alone to allow monitoring of genuine ex vivo antibody release. Anti-mouse pan-IgG is used as a positive control for total IgG producing ASCs and is used to normalize results. Frequencies for each antigen are identified in an initial test phase for each model. For chromatin and total IgG only, 30,000 splenocytes are added to each well; for Smith antigen and dsDNA, 500,000 cells are added to each well. Different numbers of splenocytes are added for different antigens due to saturation limits of spot frequencies per well. These limits are previously established. B-cell Elispots are incubated overnight at 37° C. To develop each assay, secondary antibody is added to each well, incubated, washed and alkaline phosphatase strepavidin is used as the conjugate; substrate used is BCIP-NBT. Plates are developed until spots are visible. All Elispot analyses are performed using an Immunospot C.T.L. scanner and Biospot software (Cellular Technology Ltd., Shaker Heights, Ohio). Results are shown as values from which media and cells only wells are subtracted. Some values are negative due to high background.
# NZM mice = assay: Antinuclear antibody (ANA) ELISA (anti-chromatin, anti-Smith Ag, anti-dsDNA), serum of NZM mice (Example 2)
compound,measurement,setting,value
"CC(C)C[C@H](NC(=O)[C@@H](NC(=O)c1cccc(-c2ccccc2)n1)[C@@H](C)O)B(O)O [COMPOUND A, [(1R)-1-[[(2S,3R)-3-hydroxy-2-[6-phenyl-pyridine-2-carbonyl)amino]-1-oxobutyl]amino]-3-methylbutylboronic acid]","Urine AUC leukocytes, percent change vs vehicle","MRL/lpr mice [1]; G1: 3 mg/kg iv, 1× wk",−96%
same,"Urine AUC leukocytes, percent change vs vehicle","MRL/lpr mice [1]; G2: 3 mg/kg iv, 2× wk",−94%
same,"Urine AUC leukocytes, percent change vs vehicle","MRL/lpr mice [1]; G3: 10 mg/kg po, 2× wk",−94%
same,"ASC EOS Smith Ag, percent change vs vehicle","MRL/lpr mice [2]; G1: 3 mg/kg iv, 1× wk",−97%
same,"ASC EOS chromatin, percent change vs vehicle","MRL/lpr mice [2]; G1: 3 mg/kg iv, 1× wk",−89%
same,"ASC EOS dsDNA, percent change vs vehicle","MRL/lpr mice [2]; G1: 3 mg/kg iv, 1× wk",−80%
same,"ASC EOS Smith Ag, percent change vs vehicle","MRL/lpr mice [2]; G2: 3 mg/kg iv, 2× wk",−110%
same,"ASC EOS chromatin, percent change vs vehicle","MRL/lpr mice [2]; G2: 3 mg/kg iv, 2× wk",−98%
same,"ASC EOS dsDNA, percent change vs vehicle","MRL/lpr mice [2]; G2: 3 mg/kg iv, 2× wk",−84%
same,"ASC EOS Smith Ag, percent change vs vehicle","MRL/lpr mice [2]; G3: 10 mg/kg po, 2× wk",−86%
same,"ASC EOS chromatin, percent change vs vehicle","MRL/lpr mice [2]; G3: 10 mg/kg po, 2× wk",−79%
same,"ASC EOS dsDNA, percent change vs vehicle","MRL/lpr mice [2]; G3: 10 mg/kg po, 2× wk",−82%
same,anti-Smith Ag IgG ASC frequency decrease vs vehicle,MRL/lpr mice [2]; Group 1,97%
same,anti-dsDNA IgG ASC frequency decrease vs vehicle,MRL/lpr mice [2]; Group 1,80%
same,anti-Smith Ag IgG ASC frequency decrease vs vehicle,MRL/lpr mice [2]; Group 2,100%
same,anti-dsDNA IgG ASC frequency decrease vs vehicle,MRL/lpr mice [2]; Group 2,84%
same,anti-Smith Ag IgG ASC frequency decrease vs vehicle,MRL/lpr mice [2]; Group 3,86%
same,anti-dsDNA IgG ASC frequency decrease vs vehicle,MRL/lpr mice [2]; Group 3,82%
same,"ANA Smith Ag AUC, percent change vs vehicle","NZM mice; G1 3 mg/kg ip, 1× wk",−88%
same,"ANA chromatin AUC, percent change vs vehicle","NZM mice; G1 3 mg/kg ip, 1× wk",−63%
same,"ANA dsDNA AUC, percent change vs vehicle","NZM mice; G1 3 mg/kg ip, 1× wk",−21%
same,"ANA Smith Ag AUC, percent change vs vehicle","NZM mice; G2 3 mg/kg ip, 2× wk",8%
same,"ANA chromatin AUC, percent change vs vehicle","NZM mice; G2 3 mg/kg ip, 2× wk",−79%
same,"ANA dsDNA AUC, percent change vs vehicle","NZM mice; G2 3 mg/kg ip, 2× wk",−68%
same,serum anti-dsDNA Ab decrease vs vehicle,NZM mice; once weekly COMPOUND A,21%
same,serum anti-Smith Ag Ab decrease vs vehicle,NZM mice; once weekly COMPOUND A (3 mg/kg ip),88%
same,serum anti-chromatin Ab decrease vs vehicle,NZM mice; twice weekly (3 mg/kg ip),79%
same,serum anti-dsDNA Ab decrease vs vehicle,NZM mice; twice weekly COMPOUND A,68%
same,serum anti-chromatin Ab decrease vs vehicle,NZM mice; weekly (3 mg/kg ip),63%
"CC(C)C[C@H](NC(=O)[C@H](Cc1ccccc1)NC(=O)c1cnccn1)B(O)O [bortezomib, reference compound]","Urine AUC leukocytes, percent change vs vehicle","MRL/lpr mice [1]; G4: 0.5 mg/kg iv, 1× wk",−78%
same,"Urine AUC leukocytes, percent change vs vehicle","MRL/lpr mice [1]; G5: 0.3 mg/kg iv, 2× wk",−70%
same,"ASC EOS Smith Ag, percent change vs vehicle","MRL/lpr mice [2]; G4: 0.5 mg/kg iv, 1× wk",−74%
same,"ASC EOS chromatin, percent change vs vehicle","MRL/lpr mice [2]; G4: 0.5 mg/kg iv, 1× wk",−64%
same,"ASC EOS dsDNA, percent change vs vehicle","MRL/lpr mice [2]; G4: 0.5 mg/kg iv, 1× wk",−58%
same,"ASC EOS Smith Ag, percent change vs vehicle","MRL/lpr mice [2]; G5: 0.3 mg/kg iv, 2× wk",+73%
same,"ASC EOS chromatin, percent change vs vehicle","MRL/lpr mice [2]; G5: 0.3 mg/kg iv, 2× wk",+5%
same,"ASC EOS dsDNA, percent change vs vehicle","MRL/lpr mice [2]; G5: 0.3 mg/kg iv, 2× wk",+219%
same,"ANA Smith Ag AUC, percent change vs vehicle","NZM mice; G3 0.3 mg/kg ip, 1× wk",−22%
same,"ANA chromatin AUC, percent change vs vehicle","NZM mice; G3 0.3 mg/kg ip, 1× wk",113%
same,"ANA dsDNA AUC, percent change vs vehicle","NZM mice; G3 0.3 mg/kg ip, 1× wk",95%
same,"ANA Smith Ag AUC, percent change vs vehicle","NZM mice; G4 0.3 mg/kg ip, 2× wk",−53%
same,"ANA chromatin AUC, percent change vs vehicle","NZM mice; G4 0.3 mg/kg ip, 2× wk",−22%
same,"ANA dsDNA AUC, percent change vs vehicle","NZM mice; G4 0.3 mg/kg ip, 2× wk",−2%
same,"reduction in anti-chromatin Ab relative to vehicle, significance","NZM mice; bortezomib, Dex or CTX treatment groups",none of which was significant
same,serum anti-dsDNA Ab increase vs vehicle,NZM mice; once weekly bortezomib,95%
same,serum anti-Smith Ag Ab decrease vs vehicle,NZM mice; once weekly bortezomib (0.3 mg/kg ip),22%
same,serum anti-dsDNA Ab decrease vs vehicle,NZM mice; twice weekly bortezomib,2%
same,serum anti-chromatin Ab decrease vs vehicle,NZM mice; twice weekly bortezomib (0.3 mg/kg ip),22%
"C[C@@H]1C[C@H]2[C@@H]3CCC4=CC(=O)C=C[C@]4(C)[C@@]3(F)[C@@H](O)C[C@]2(C)[C@@]1(O)C(=O)CO [dexamethasone, Dexamethasone, reference compound]","Urine AUC leukocytes, percent change vs vehicle","MRL/lpr mice [1]; G6: 1.5 mg/kg ip, 3× wk",−100%
same,"ASC EOS Smith Ag, percent change vs vehicle","MRL/lpr mice [2]; G6: 1.5 mg/kg ip, 3× wk",+40%
same,"ASC EOS chromatin, percent change vs vehicle","MRL/lpr mice [2]; G6: 1.5 mg/kg ip, 3× wk",−22%
same,"ASC EOS dsDNA, percent change vs vehicle","MRL/lpr mice [2]; G6: 1.5 mg/kg ip, 3× wk",+129%
same,"ANA Smith Ag AUC, percent change vs vehicle","NZM mice; G5 1.5 mg/kg ip, 3× wk",−56%
same,"ANA chromatin AUC, percent change vs vehicle","NZM mice; G5 1.5 mg/kg ip, 3× wk",−8%
same,"ANA dsDNA AUC, percent change vs vehicle","NZM mice; G5 1.5 mg/kg ip, 3× wk",−19%
